Results published in US9969726B2, “Metabotropic glutamate receptor negative allosteric modulators (NAMS) and uses thereof” (Sanford-Burnham Medical Research Institute, priority 2014, dated 2018).
Where two headings read alike, the source gives them in different places.

Assays:
rat mGlu2 receptor = rat mGlu2 receptor (Rattus norvegicus (Rat), UniProt P31421); assay: mGlu2 in vitro GIRK thallium flux assay; format: cell-based; conditions: NAM, EC80 glutamate, HEK-293 GIRK cells
In short: (§1)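 Cells expressing rat mGlu2 or mGlu3 with GIRK, plated overnight at 37 °C. Test compounds (0.3% DMSO, 10-point 1:3 series) preincubated 2.5 or 60 min, then thallium buffer plus EC80 glutamate added. Fluorescence slope 5–15 s after addition, normalised to vehicle and maximal agonist, fitted by four-parameter logistic.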

rat mGlu3 receptor = rat mGlu3 receptor (Rattus norvegicus (Rat), UniProt P31422); assay: mGlu3 in vitro GIRK thallium flux assay; format: cell-based; conditions: NAM; 2.5 min compound incubation; EC80 glutamate; HEK-293 GIRK cells
Sequence of rat mGlu3 receptor (P31422 23-879): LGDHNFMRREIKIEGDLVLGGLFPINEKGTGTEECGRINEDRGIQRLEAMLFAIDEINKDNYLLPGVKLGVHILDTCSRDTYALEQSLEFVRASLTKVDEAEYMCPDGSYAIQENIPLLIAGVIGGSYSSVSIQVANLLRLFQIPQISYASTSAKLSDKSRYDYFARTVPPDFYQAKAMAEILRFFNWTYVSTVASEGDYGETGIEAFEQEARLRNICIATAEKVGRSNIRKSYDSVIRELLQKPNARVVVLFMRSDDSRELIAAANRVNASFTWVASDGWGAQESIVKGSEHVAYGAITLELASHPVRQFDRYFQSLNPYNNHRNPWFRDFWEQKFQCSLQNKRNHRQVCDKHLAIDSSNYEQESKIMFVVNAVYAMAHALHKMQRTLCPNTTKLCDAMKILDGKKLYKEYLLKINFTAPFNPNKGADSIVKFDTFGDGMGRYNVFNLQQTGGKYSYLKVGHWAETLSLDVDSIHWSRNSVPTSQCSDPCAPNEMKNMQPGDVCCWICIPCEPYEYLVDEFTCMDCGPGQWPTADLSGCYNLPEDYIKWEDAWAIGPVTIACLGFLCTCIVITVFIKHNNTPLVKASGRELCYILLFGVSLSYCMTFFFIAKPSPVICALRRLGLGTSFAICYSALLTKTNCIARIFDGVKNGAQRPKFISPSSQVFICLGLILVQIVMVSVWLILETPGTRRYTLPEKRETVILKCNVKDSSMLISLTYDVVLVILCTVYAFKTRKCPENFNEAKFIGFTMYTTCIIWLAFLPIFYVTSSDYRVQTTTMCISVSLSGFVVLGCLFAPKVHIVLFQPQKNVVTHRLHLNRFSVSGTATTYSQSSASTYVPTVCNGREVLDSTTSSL
In short: as §1

[1] = 2.5 min compound incubation, read-out: mGlu2 EC50 (μM) (2.5 min)
[2] = mGlu2 EC50 (μM) (60 min), 60 min compound incubation
[3] = read-out: mGlu2 EC50 (μM) (60 min), 60 min compound incubation

Sequence of rat mGlu2 receptor (P31421 19-872): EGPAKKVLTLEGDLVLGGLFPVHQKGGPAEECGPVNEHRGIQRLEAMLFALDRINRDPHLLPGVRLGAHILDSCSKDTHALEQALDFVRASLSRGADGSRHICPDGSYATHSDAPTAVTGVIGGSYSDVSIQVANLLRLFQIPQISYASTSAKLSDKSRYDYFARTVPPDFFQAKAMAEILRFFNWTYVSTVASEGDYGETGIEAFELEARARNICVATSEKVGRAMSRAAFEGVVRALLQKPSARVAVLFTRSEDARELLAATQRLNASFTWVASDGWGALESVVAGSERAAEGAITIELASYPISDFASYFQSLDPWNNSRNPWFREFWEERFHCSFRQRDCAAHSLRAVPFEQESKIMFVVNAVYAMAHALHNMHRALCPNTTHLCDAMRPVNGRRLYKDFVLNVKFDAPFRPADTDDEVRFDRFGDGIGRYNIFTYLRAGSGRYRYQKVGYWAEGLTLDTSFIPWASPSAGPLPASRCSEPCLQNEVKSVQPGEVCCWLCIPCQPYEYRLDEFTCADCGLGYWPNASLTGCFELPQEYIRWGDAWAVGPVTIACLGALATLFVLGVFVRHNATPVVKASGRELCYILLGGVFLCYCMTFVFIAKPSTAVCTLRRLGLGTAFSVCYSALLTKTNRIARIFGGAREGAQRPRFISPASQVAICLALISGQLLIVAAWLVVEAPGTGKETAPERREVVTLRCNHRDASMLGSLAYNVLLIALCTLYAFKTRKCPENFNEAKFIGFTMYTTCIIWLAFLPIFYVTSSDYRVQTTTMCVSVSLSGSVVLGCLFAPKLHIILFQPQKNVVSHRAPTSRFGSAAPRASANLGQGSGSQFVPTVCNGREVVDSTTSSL

EC50 (rat mGlu2 receptor; [2]) [µM]	Compound	EC50 (rat mGlu2 receptor; [1]) [µM]	EC50 (rat mGlu3 receptor) [µM]	EC50 (rat mGlu2 receptor; [3]) [µM]
0.05	O=C(O)c1cccc(-c2cccc(-c3nsc(-c4ccccc4)n3)c2)c1 [Example 39, 3′-(5-Phenyl-1,2,4-thiadiazol-3-yl)biphenyl-3-carboxylic Acid]	0.32	2.28	
	O=C(O)c1cc(-c2ccc(-c3csc(-c4ccccc4)n3)cc2)ccc1F [Example 17, 4-Fluoro-4′-(2-phenylthiazol-4-yl)biphenyl-3-carboxylic Acid]	> 30	> 30	> 30
> 30	CC(C)n1nc(-c2cccc(-c3cccc(C(=O)O)c3)c2)nc1-c1ccccc1 [Example 64, 3′-(1-Isopropyl-5-phenyl-1H-1,2,4-triazol-3-yl)-[1,1′-biphenyl]-3-carboxylic acid]	> 10	> 10	
	N#Cc1cccc(-c2cccc(-c3csc(-c4ccccc4)n3)c2)c1 [Example 14, 3′-(2-Phenylthiazol-4-yl)biphenyl-3-carbonitrile]	> 30	> 30	> 10
	O=C(O)c1cc(-c2cccc(-c3nc(-c4nccs4)cc(C(F)(F)F)n3)c2)ccc1F [Example 109, 4-Fluoro-3′-(4-(thiazol-2-yl)-6-(trifluoromethyl)pyrimidin-2-yl)biphenyl-3-carboxylic Acid]	1.34	2.13	0.297
4.43	Cc1cc2c(cc1C(F)(F)F)NC(=O)CC(c1cccc(CCCO)c1)N2 (racemic) [Example 154, 4-(3-(3-Hydroxypropyl)phenyl)-7-methyl-8-(trifluoromethyl)-4,5-dihydro-1H-benzo[b][1,4]diazepin-2(3H)-one]	> 10	> 10	
> 30	O=C(O)c1cc(-c2csc(-c3ccccc3)n2)ccc1F [Example 27, 2-Fluoro-5-(2-phenylthiazol-4-yl)benzoic acid]	> 10	> 30	
> 10	O=C(O)c1cccc(-c2cccc(-c3csc(-c4cccc5ccccc45)n3)c2)c1 [Example 30]	> 10	> 30	
> 10	O=C(O)c1ccc(-c2cccc(-c3csc(-c4ccccc4)n3)c2)cc1Cl [Example 21, 3-Chloro-3′-(2-phenylthiazol-4-yl)biphenyl-4-carboxylic Acid]	> 10	> 10	
	N#Cc1cc(C2=Nc3ccc(F)cc3NC(=O)C2)ccn1 [Example 180, 4-(8-Fluoro-2-oxo-2,3-dihydro-1H-benzo[b][1,4]diazepin-4-yl)picolinonitrile]	0.88	0.86	0.31
	Cc1cc(-c2cccc(C3CC(=O)Nc4cc(NC(=O)Oc5ccccc5)ccc4N3)c2)cc(C)n1 (centres unmarked) [Example 163, Phenyl (2-(3-(2,6-dimethylpyridin-4-yl)phenyl)-4-oxo-2,3,4,5-tetrahydro-1H-benzo[b][1,4]diazepin-7-yl)carbamate]	> 10	> 10	> 10
	COc1ccc(-c2cc(C(F)(F)F)nc(-c3cccc(-c4ccc(F)c(C(=O)O)c4)c3)n2)cn1 [Example 120, 4-Fluoro-3′-(4-(6-methoxypyridin-3-yl)-6-(trifluoromethyl)pyrimidin-2-yl)-[1,1′-biphenyl]-3-carboxylic Acid]	1.43	1.41	0.35
	O=C(O)c1cc(-c2cccc(-c3nc(-c4cccnc4)cc(C(F)(F)F)n3)c2)ccc1F [Example 116, 4-Fluoro-3′-(4-(pyridin-3-yl)-6-(trifluoromethyl)pyrimidin-2-yl)biphenyl-3-carboxylic Acid]	2.11	8.58	0.27
> 30	O=C(O)c1ccc(-c2cccc(-c3csc(-c4ccccc4)n3)c2)c(Cl)c1 [Example 26, 2-Chloro-3′-(2-phenylthiazol-4-yl)biphenyl-4-carboxylic Acid]	> 30	> 10	
> 10	O=C(O)c1cccc(-c2cccc(-c3nc(-c4ccc(C(F)(F)F)nc4)n(-c4ccccc4)n3)c2)c1 [Example 58, 3′-(1-Phenyl-5-(6-(trifluoromethyl)pyridin-3-yl)-1H-1,2,4-triazol-3-yl)-[1,1′-biphenyl]-3-carboxylic Acid]	> 10	5.56	
	Cc1ccccc1-c1cc(C(F)(F)F)nc(-c2cccc(-c3ccc(F)c(C(=O)O)c3)c2)n1 [Example 91, 4-Fluoro-3′-(4-o-tolyl-6-(trifluoromethyl)pyrimidin-2-yl)biphenyl-3-carboxylic acid]	1.52	> 10	0.28
1.93	O=C(O)c1cc(-c2cccc(-c3csc(-c4cc5ccccc5o4)n3)c2)ccc1F [Example 16, 3′-(2-(Benzofuran-2-yl)thiazol-4-yl)-4-fluorobiphenyl-3-carboxylic Acid]	2.57	3.32	
	O=C(O)c1cc(-c2ccccc2-c2csc(-c3ccccc3)n2)ccc1F [Example 18, 4-Fluoro-2′-(2-phenylthiazol-4-yl)biphenyl-3-carboxylic Acid]	> 10	> 10	> 30
	O=C(O)c1cc(-c2cccc(-c3nccc(-c4ccoc4)n3)c2)ccc1F [Example 118, 4-Fluoro-3′-(4-(furan-3-yl)pyrimidin-2-yl)biphenyl-3-carboxylic Acid]	0.26	1.38	1.01
> 10	O=C(O)c1cc(-c2cccc(-c3nc(-c4ccccc4)n(-c4ccccc4)n3)c2)ccc1F [Example 51, 3′-(1,5-Diphenyl-1H-1,2,4-triazol-3-yl)-4-fluoro-[1,1′-biphenyl]-3-carboxylic acid]	> 10	5.8	
	O=C(O)c1cc(F)cc(-c2cccc(-c3nc(-c4ccoc4)cc(C(F)(F)F)n3)c2)c1 [Example 113, 5-Fluoro-3′-(4-(furan-3-yl)-6-(trifluoromethyl)pyrimidin-2-yl)biphenyl-3-carboxylic Acid]	0.4	1.15	0.23
> 10	O=C(O)c1cc(F)cc(-c2cccc(-c3nc(-c4ccccc4)n(-c4ccccc4)n3)c2)c1 [Example 52, 3′-(1,5-Diphenyl-1H-1,2,4-triazol-3-yl)-5-fluorobiphenyl-3-carboxylic Acid]	> 10	3.11	
	CSc1ccc(-c2cc(C(F)(F)F)nc(-c3cccc(-c4ccc(F)c(C(=O)O)c4)c3)n2)cc1 [Example 103, 4-Fluoro-3′-(4-(4-(methylthio)phenyl)-6-(trifluoromethyl)pyrimidin-2-yl)biphenyl-3-carboxylic Acid]	4.69	4.54	0.99
	O=C(O)c1cc(F)cc(-c2ccc(-c3nc(-c4ccc(C(F)(F)F)nc4)cc(C(F)(F)F)n3)cc2)c1 [Example 84, 5-Fluoro-4′-(4-(trifluoromethyl)-6-(6-(trifluoromethyl)pyridin-3-yl)pyrimidin-2-yl)biphenyl-3-carboxylic Acid]	2.79	4.91	
	O=C(O)c1ccc(-c2cccc(-c3nc(-c4ccc(C(F)(F)F)nc4)cc(C(F)(F)F)n3)c2)cc1 [Example 71, 3′-(4-(Trifluoromethyl)-6-(6-(trifluoromethyl)pyridin-3-yl)pyrimidin-2-yl)biphenyl-4-carboxylic Acid]	> 10	> 10	> 10
